Patent US10703756B2, “Pyrrolo[2,3-D]pyrimidinyl, pyrrolo[2,3-B]pyrazinyl, pyrrolo[2,3-B]pyridinyl acrylamides and epoxides thereof” (Pfizer Inc., priority 2015, dated 2020)
pIC50: −log10 of the molar value. Like-named read-outs stand apart in the source and are kept apart here.

Legend:
[1] = biological target: T1, JAK3 enzyme (Homo sapiens, UniProt P52333); experiment: JAK Caliper Enzyme Assay at 4 μM ATP; assay type: biochemical
T1 sequence (P52333 1-1124): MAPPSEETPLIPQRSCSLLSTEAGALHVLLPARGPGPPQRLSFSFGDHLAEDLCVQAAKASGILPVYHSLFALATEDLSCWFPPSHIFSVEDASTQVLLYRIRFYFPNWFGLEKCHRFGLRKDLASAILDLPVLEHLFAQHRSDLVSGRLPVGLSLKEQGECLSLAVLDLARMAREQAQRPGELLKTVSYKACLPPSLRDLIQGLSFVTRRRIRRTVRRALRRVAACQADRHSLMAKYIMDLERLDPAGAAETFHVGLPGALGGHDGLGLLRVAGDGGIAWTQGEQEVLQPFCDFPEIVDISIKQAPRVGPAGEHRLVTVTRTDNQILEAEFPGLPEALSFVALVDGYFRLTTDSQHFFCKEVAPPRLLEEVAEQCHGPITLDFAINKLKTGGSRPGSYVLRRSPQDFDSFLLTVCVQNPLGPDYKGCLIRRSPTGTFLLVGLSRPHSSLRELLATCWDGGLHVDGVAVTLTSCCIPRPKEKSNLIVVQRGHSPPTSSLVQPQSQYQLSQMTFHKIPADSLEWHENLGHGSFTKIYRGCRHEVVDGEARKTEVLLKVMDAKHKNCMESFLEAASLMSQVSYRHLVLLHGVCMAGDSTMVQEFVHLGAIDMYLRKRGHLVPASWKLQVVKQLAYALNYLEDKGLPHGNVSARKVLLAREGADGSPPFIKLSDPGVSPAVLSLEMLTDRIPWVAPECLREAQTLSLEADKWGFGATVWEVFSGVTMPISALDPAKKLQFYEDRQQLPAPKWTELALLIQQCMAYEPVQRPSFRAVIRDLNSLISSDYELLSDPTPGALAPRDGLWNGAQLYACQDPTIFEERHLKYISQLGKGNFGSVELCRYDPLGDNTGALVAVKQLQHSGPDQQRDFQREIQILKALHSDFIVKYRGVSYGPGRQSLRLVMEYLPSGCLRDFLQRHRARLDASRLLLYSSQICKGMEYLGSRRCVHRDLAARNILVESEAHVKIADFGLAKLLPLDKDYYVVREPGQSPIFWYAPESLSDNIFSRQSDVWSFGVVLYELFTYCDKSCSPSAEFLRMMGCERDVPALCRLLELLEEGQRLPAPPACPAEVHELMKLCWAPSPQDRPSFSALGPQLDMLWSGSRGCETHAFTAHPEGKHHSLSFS
How it was run: (§1)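 Read-out: microfluidic mobility-shift separation quantifying substrate peptide versus phosphopeptide. Compounds were tested as 11-point half-log dilutions, top 600 μM in DMSO before transfer. Enzyme level and reaction time were tuned for each prep so conversion stayed at 20%-30%.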

[2] = biological target: T1, JAK3 enzyme; experiment: JAK Caliper Enzyme Assay at 1 mM ATP; assay type: biochemical
How it was run: as §1

[3] = test system: IL-15 induced P-STAT5 in human PBMC; experiment: PBMC IL-15 Induced P-STAT5; assay type: cell-based; conditions: for pIC50: human PBMC, IL-15 final 41 ng/mL, read-out: PBMC IL15_pSTAT5_IC50
Protocol: PBMC IL-15 Induced P-STAT5
Test compounds were serially diluted in DMSO, with further dilution of the compounds in RPMI 1640 medium (Invitrogen #72400) supplemented with 10 mM HEPES, pH 7.4, 1 mM sodium pyruvate, and Penicillin/Streptomycin (by adding 5 μL compound/DMSO in 120 μL Dulbecco's Phosphate-Buffered Saline (D-PBS, 1×), [DMSO]=4%, and mixing the solution by repeated pipetting, 6×). IL-15 was diluted to the concentration at 820 ng/mL in RPMI 1640 medium.
Frozen human PBMC (200-250 million cells/vial) was thawed at 37° C. The cells were transferred to 10 mL warm medium in a 50-mL conical tube, and centrifuged at 1,200 RPM at room temperature for 5 min. The supernatant was aspirated. Cells were suspended in 3 mL warm human plasma and incubated at 37° C. in a tissue culture incubator for 1.5 to 2 h. After adding 47 ml D-PBS (37° C.) to PBMC/FBS suspension, centrifuging at 1,200 RPM at room temperature for 5 min, and aspirating the supernatant, the cells were resuspended in 20 mL warm RPMI medium. Ninety μL of cell suspension were pipetted per well in a 96-well, deep-well, V-bottom plate, and the plate was incubated at 37° C. for 30 min. Five μL of compound were transferred to each well (final 0.2% DMSO), vortex gently and incubate at 37° C. for 15 min; 5 μL 4% DMSO/PBS were added to the control wells. After adding 5 μL 820 ng/mL of human IL-15 (final 41 ng/mL) to each well (5 μL PBS to the control wells), vortexing gently and incubating at 37° C. for 15 min, followed by 0.3 mL 1% paraformaldehyde/PBS (37° C.) to each well, and incubating the plate at room temperature for 15 min, the plates were centrifuged at 1,200 RPM (Beckman GS-6R or Sorvall Legend) at room temperature for 5 min, and the supernatant was aspirated using a 8-channel or 12-channel manifold. After adding 0.8 mL staining buffer per well, the plates were centrifuged at 1,200 RPM (Beckman GS-6R or Sorvall Legend) at room temperature for 5 min, and again the supernatant was aspirated using a 8-channel or 12-channel manifold. The plate was vortexed, and 0.35 mL 90% methanol/10% H2O (−20° C.) was added per well, and the plate incubated on ice for 20 min. After again adding 0.8 mL staining buffer per well, the plates were centrifuged at 1,200 RPM (Beckman GS-6R or Sorvall Legend) at room temperature for 5 min, and again the supernatant was aspirated using a 8-channel or 12-channel manifold, and then 0.8 mL Staining buffer was added per well. After once again adding 0.8 mL staining buffer per well, the plates were centrifuged at 1,200 RPM (Beckman GS-6R or Sorvall Legend) at room temperature for 5 min, and again the supernatant was aspirated using a 8-channel or 12-channel manifold. Then the plate was vortexed, and 250 μL/well of Alexa Fluor® 647 conjugated anti-STAT5 antibody ([…]; […]) was added, and the plate was incubated at 4° C. overnight in the dark. Samples of 250 μL/well were transferred to a 96-well U-bottom plate, and the FACS analysis was performed gating on total lymphocytes. Samples were analyzed using a BD Calibur™ or BD FACSCanto™ flow cytometer equipped with the BD High Throughput Sampler.

SMILES | pIC50 [1] | pIC50 [2] | pIC50 [3] | IC50 ([3]; Homo sapiens, PBMC, read-out: PBMC IL15_pSTAT5_IC50 (nM)) [nM]
C=CC(=O)N1CCC(C)(Nc2cnc3[nH]cc(C(=O)N[C@H](C)COC)c3n2)CC1 [Example 335, 2-[(1-acryloyl-4-methylpiperidin-4-yl)amino]-N-[(2R)-1-methoxypropan-2-yl]-5H-pyrrolo[2,3-b]pyrazine-7-carboxamide] | 9.58 | 7.24 | 6.07 | 
C=CC(=O)N1CCN(c2cnc3[nH]cc(C(=O)NC4CCC4)c3n2)CC1(C)C [Example 289, 2-(4-acryloyl-3,3-dimethylpiperazin-1-yl)-N-cyclobutyl-5H-pyrrolo[2,3-b]pyrazine-7-carboxamide] | 8.89 | 6.68 | 6.34 | 
C=CC(=O)N1CC[C@H](Nc2cnc3[nH]cc(C(=O)N[C@@H]4C[C@H]4C(F)(F)F)c3n2)[C@H](OC)C1 [Example 271, 2-{[(3R,4S)-1-acryloyl-3-methoxypiperidin-4-yl]amino}-N-[(1R,2R)-2-(trifluoromethyl)cyclopropyl]-5H-pyrrolo[2,3-b]pyrazine-7-carboxamide] | 9.17 | 6.84 | 5.94 | 
C=CC(=O)N1CCN(c2cnc3[nH]cc(C(=O)NCC(F)(F)F)c3n2)C[C@@H]1CC(C)C [Example 311, 2-[(3S)-4-acryloyl-3-(2-methylpropyl)piperazin-1-yl]-N-(2,2,2-trifluoroethyl)-5H-pyrrolo[2,3-b]pyrazine-7-carboxamide] | 8.75 | 6.65 | 6.23 | 
C=CC(=O)N1CC[C@H](Oc2cnc3[nH]cc(C(=O)N[C@H](C)COC)c3n2)C1 [Example 54, 2-{[(3S)-1-acryloylpyrrolidin-3-yl]oxy}-N-[(2R)-1-methoxypropan-2-yl]-5H-pyrrolo[2,3-b]pyrazine-7-carboxamide] | 8.60 | 6.46 |  | 1640
C=CC(=O)N1CCC(Oc2cnc3[nH]cc(C(=O)NCCCC#N)c3n2)CC1 [Example 218, 2-[(1-acryloylpiperidin-4-yl)oxy]-N-(3-cyanopropyl)-5H-pyrrolo[2,3-b]pyrazine-7-carboxamide] | 9.20 | 6.98 | 5.92 | 
C=CC(=O)N1CCN(c2cnc3[nH]cc(C(=O)NCC(C)(F)F)c3n2)CC1(C)C [Example 275, 2-(4-acryloyl-3,3-dimethylpiperazin-1-yl)-N-(2,2-difluoropropyl)-5H-pyrrolo[2,3-b]pyrazine-7-carboxamide] | 8.50 | 6.38 | 5.99 | 
C=CC(=O)N1CCC(Oc2cnc3[nH]cc(C(=O)N[C@@H](C(C)C)[C@H](O)C(F)(F)F)c3n2)CC1 [Example 217, 2-[(1-acryloylpiperidin-4-yl)Oxy]-N-[(2S,3S)-1,1,1-trifluoro-2-hydroxy-4-methylpentan-3-yl]-5H-pyrrolo[2,3-b]pyrazine-7-carboxamide] | 8.71 | 6.57 | 5.68 | 
C=CC(=O)N1CCC(Oc2cnc3[nH]cc(C(=O)N[C@H]4CC[C@H](F)C4)c3n2)CC1 [Example 210, 2-[(1-acryloylpiperidin-4-yl)oxy]-N-[(1S,3S)-3-fluorocyclopentyl]-5H-pyrrolo[2,3-b]pyrazine-7-carboxamide] | 9.36 | 7.27 | 6.49 | 
C=CC(=O)N1CCC(C)(Nc2cnc3[nH]cc(C(=O)NCC(C)(F)F)c3n2)CC1 [Example 296, 2-[(1-acryloyl-4-methylpiperidin-4-yl)amino]-N-(2,2-difluoropropyl)-5H-pyrrolo[2,3-b]pyrazine-7-carboxamide] | 9.28 | 7.24 | 6.22 | 
C=CC(=O)N1CCN(c2cnc3[nH]cc(C(=O)NCC4CC(F)(F)C4)c3n2)CC1 [Example 276, 2-(4-acryloylpiperazin-1-yl)-N-[(3,3-difluorocyclobutyl)methyl]-5H-pyrrolo[2,3-b]pyrazine-7-carboxamide] | 9.32 | 6.95 | 6.21 | 
C=CC(=O)N1C[C@H](Nc2ncnc3[nH]ccc23)CC[C@@H]1[C@H](C)O (racemic) [Example 112] | 8.99 | 6.74 | 5.99 | 
C=CC(=O)N1CC[C@@H](Oc2cnc3[nH]cc(C(=O)NCC)c3n2)[C@H](C)C1 (racemic) [Example 46, Trans-racemic-2-{[1-acryloyl-3-methylpiperidin-4-yl]oxy}-N-ethyl-5H-pyrrolo[2,3-b]pyrazine-7-carboxamide] | 8.47 | 6.68 | 6.06 | 
C=CC(=O)N1CCC(Oc2cnc3[nH]cc(C(=O)NCC4(O)CCC4)c3n2)CC1 [Example 203, 2-[(1-acryloylpiperidin-4-yl)oxy]-N-[(1-hydroxycyclobutyl)methyl]-5H-pyrrolo[2,3-b]pyrazine-7-carboxamide] | 8.55 | 6.43 | 5.35 | 
C=CC(=O)N1CC[C@H](Nc2cnc3[nH]cc(C(=O)NC[C@H](C)CC(F)(F)F)c3n2)[C@H](OC)C1 [Example 294, 2-[((3R,4S)-1-acryloyl-3-methoxypiperidin-4-yl)amino]-N-([2R]-4,4,4-trifluoro-2-methylbutyl)-5H-pyrrolo[2,3-b]pyrazine-7-carboxamide] | 8.94 | 7.21 | 6.24 | 
C=CC(=O)N1CC[C@@H](Nc2cnc3[nH]cc(C(=O)NCC4(O)CCC(F)(F)CC4)c3n2)[C@@H](OC)C1 [Example 268] | 8.84 | 6.48 | < 5.00 | 
C=CC(=O)N1CC[C@@H](Nc2cnc3[nH]cc(C(=O)NC[C@H](C)CC(F)(F)F)c3n2)[C@@H](OC)C1 [Example 323, 2-{[(3S,4R)-1-acryloyl-3-methoxypiperidin-4-yl]amino}-N-[(2R)-4,4,4-trifluoro-2-methylbutyl]-5H-pyrrolo[2,3-b]pyrazine-7-carboxamide] | 9.41 | 7.16 | 6.37 | 
